Series [1] concerns the target T1, C-X-C chemokine receptor type 3 (Homo sapiens) (UniProt P49682).
T1 sequence (whole entry): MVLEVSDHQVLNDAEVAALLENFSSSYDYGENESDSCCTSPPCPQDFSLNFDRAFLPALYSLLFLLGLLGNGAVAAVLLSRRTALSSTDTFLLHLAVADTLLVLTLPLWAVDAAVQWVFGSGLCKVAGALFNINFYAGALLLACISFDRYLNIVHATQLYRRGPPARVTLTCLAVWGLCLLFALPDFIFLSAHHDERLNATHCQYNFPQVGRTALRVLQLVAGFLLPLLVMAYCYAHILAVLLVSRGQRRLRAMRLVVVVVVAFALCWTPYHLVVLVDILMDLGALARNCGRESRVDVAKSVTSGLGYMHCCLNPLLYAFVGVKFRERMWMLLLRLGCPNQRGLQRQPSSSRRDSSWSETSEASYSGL
Description: Binding affinity to CXCR3 receptor (unknown origin).

Series [2] deals with T2, C-C chemokine receptor type 3 (Homo sapiens) (UniProt P51677).
T2 sequence (whole entry): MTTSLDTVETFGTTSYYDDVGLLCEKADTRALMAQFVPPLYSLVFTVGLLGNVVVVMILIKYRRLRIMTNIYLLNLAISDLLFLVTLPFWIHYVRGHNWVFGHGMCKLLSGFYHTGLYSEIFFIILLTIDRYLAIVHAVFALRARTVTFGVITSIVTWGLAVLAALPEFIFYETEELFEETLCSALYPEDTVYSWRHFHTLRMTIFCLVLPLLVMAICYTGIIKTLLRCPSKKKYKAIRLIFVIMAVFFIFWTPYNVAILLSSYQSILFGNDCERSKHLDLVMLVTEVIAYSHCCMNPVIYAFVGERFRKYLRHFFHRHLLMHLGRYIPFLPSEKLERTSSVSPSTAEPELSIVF
Description: Binding affinity to CCR3 receptor (unknown origin).

Series [3] concerns the target T3, C-C chemokine receptor type 1 (Homo sapiens, UniProt P32246).
T3 sequence (P32246 whole entry): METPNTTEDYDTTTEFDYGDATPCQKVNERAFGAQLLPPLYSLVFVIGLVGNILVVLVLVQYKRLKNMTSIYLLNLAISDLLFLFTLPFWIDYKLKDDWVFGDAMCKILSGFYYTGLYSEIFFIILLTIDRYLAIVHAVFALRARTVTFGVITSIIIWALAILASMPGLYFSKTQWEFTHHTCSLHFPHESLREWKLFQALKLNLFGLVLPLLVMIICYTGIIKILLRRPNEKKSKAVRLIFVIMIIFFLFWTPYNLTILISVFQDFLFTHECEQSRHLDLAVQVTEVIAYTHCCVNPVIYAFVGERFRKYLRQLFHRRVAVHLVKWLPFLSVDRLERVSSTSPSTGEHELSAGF
Description: Displacement of [125I]hMIP-1alpha from CCR1 in human PBMC. On the technique in general: In a radioligand displacement assay an active substance lowers the binding of a labelled ligand.

Series [4] is described as follows: Bioavailability in mouse at 5 mg/kg. In kind it is ADME, organism-based. As to conditions: in vivo.
Series [5] concerns the target T4, Chemokine (C-C motif) receptor 1 (Canis lupus familiaris, UniProt Q2V0Q7).
T4 sequence (Q2V0Q7 whole entry): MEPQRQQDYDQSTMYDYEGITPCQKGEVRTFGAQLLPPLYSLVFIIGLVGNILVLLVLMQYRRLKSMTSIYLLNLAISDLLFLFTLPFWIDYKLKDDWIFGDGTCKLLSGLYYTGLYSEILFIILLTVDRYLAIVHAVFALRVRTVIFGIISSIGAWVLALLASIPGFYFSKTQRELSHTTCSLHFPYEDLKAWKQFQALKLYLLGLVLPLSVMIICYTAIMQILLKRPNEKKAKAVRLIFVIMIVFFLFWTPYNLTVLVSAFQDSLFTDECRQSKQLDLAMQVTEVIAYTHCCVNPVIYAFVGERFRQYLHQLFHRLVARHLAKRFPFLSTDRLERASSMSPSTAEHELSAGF
Description: Displacement of [125I]hMIP-1alpha from dog PBMC CCR1.

The species entered for series [6] is Homo sapiens. Description: Inhibition of Na+ channel (unknown origin).
Series [7] has as its target C-C chemokine receptor type 5 (Homo sapiens) (UniProt P51681). Description: Binding affinity to CCR5 receptor (unknown origin).
Series [8] deals with Voltage-gated inwardly rectifying potassium channel KCNH2 (Homo sapiens, UniProt Q12809). Description: Inhibition of human ERG.
Series [9] concerns the target T3, C-C chemokine receptor type 1. The experiment in a line: Displacement of [125I]MIP-1alpha from CCR1 in human THP1 cells. The series is classed as cell-based, THP-1.

Calls of active or inactive are those of the source. The rule behind the calls is not given here.

Chain of Voltage-gated inwardly rectifying potassium channel KCNH2 (Q12809 whole entry): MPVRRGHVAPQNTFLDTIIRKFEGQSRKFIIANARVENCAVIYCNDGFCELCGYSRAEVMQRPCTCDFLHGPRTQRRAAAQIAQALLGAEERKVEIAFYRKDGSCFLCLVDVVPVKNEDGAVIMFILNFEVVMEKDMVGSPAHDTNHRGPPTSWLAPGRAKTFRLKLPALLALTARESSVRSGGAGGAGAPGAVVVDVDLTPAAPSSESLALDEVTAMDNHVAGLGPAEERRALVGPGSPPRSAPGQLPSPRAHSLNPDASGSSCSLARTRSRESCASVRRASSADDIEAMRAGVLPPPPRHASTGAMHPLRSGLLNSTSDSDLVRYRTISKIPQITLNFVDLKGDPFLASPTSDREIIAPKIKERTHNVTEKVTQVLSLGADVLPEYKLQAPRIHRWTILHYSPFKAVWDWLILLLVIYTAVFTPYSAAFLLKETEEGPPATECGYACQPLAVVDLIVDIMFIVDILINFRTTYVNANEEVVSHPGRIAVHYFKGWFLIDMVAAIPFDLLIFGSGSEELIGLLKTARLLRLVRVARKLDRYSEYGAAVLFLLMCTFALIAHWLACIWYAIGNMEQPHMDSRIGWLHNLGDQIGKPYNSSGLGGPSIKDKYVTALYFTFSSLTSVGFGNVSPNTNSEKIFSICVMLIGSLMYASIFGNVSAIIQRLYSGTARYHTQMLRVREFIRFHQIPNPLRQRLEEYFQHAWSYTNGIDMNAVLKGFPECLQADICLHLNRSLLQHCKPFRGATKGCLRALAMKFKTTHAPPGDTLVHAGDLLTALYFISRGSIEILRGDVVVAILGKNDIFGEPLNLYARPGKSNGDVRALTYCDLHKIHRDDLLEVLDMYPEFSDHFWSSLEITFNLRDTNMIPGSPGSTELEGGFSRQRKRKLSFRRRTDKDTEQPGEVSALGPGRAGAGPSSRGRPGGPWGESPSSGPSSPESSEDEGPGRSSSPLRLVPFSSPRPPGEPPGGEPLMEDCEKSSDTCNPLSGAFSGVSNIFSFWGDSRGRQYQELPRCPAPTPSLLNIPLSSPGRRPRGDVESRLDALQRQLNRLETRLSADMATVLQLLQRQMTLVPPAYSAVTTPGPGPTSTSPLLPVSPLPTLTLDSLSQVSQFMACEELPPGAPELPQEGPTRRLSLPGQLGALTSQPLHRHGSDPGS
Chain of C-C chemokine receptor type 5 (Homo sapiens) (P51681 whole entry, looked up): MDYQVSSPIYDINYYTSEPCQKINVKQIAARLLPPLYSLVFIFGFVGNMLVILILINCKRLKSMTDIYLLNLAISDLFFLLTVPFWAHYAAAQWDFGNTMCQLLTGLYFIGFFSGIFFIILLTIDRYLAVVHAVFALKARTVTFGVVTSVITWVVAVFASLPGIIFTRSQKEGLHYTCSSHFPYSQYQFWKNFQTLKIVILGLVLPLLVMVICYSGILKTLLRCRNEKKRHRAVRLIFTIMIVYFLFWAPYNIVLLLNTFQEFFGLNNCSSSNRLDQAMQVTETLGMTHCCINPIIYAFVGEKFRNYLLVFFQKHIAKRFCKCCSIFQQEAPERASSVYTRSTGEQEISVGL

As to `CC(C)[C@@H](NC(=O)NCC(C)(C)O)C(=O)N1CC[C@](O)(c2ccc(Cl)cc2)C(C)(C)C1` [BMS-817399], the outcome in series [1], in series [2] and in series [7] was inactive. The half-maximal inhibitory concentration (IC50) in series [3] was 4.2 nM; in [5] it was 635 nM; in series [9], 1 nM. The bioavailability in series [4] is 79%. For the same molecule, the inhibition entry in series [6] is “inactive”. Moreover, the “inhibition (INH)” value in series [8] is recorded as “Not Active”.

The IC50 is the midpoint of a concentration-inhibition curve. A low value points to higher potency. As a reminder, the bioavailability is the share of a dose that reaches the circulation, judged against a reference dose that is usually intravenous. Low values mean poor availability, high ones good availability.

The record behind these values is ChEMBL document CHEMBL3351798, “Discovery of the CCR1 antagonist, BMS-817399, for the treatment of rheumatoid arthritis” (J Med Chem, 2014).
